# System: r(CUG)12-MBNL1 complex
# Assay: Inhibition of the r(CUG)12-MBNL1 complex measured by TR-FRET
# Assay type: biochemical
# Conditions: Table L; 80 nM RNA, 60 nM MBNL1-His6
row,IC50 [µM],SMILES
1,> 200,"Cn1c(-c2ccc(-c3nc4ccc(N)cc4n3C)cc2)nc2ccc(N)cc21 [Compound 85, 2,2′-(1,4-phenylene)bis(1-methyl-1H-benzimidazol-6-amine)]"
2,26,"N#Cc1ccc2nc(-c3ccc(-c4nc5ccc(C#N)cc5[nH]4)cc3)[nH]c2c1 [Compound 9, 2,2′-(1,4-phenylene)bis(1H-benzo[d]imidazole-6-carbonitrile)]"
3,144,"N=C(NO)c1ccc2nc(-c3ccc(-c4nc5ccc(C(=N)NO)cc5[nH]4)cc3)[nH]c2c1 [Compound 25, 2,2′-(1,4-phenylene)bis(N-hydroxy-1H-benzo[d]imidazole-6-carboximidamide)]"
4,112,"CC(=O)Nc1ccc2nc(-c3ccc(-c4nc5ccc(NC(C)=O)cc5[nH]4)cc3)[nH]c2c1 [Compound 6, N,N′-(2,2′-(1,4-phenylene)bis(1H-benzo[d]imidazole-5,2-diyl))diacetamide]"
5,7,"O=C(NCCN1CCCC1)c1ccc2nc(-c3ccc(-c4nc5ccc(C(=O)NCCN6CCCC6)cc5[nH]4)cc3)[nH]c2c1 [Compound 40, 2,2′-(1,4-phenylene)bis(N-(2-(pyrrolidin-1-yl)ethyl)-1H-benzo[d]imidazole-6-carboxamide)]"
6,10.7,CN(C)CC(=O)Nc1ccc2nc(-c3ccc(-c4nc5ccc(NC(=O)CN(C)C)cc5[nH]4)cc3)[nH]c2c1 [Compound 63]
7,71,NC(=O)Nc1ccc(-c2nc3cc(-c4ccc5[nH]c(-c6ccc(NC(N)=O)cc6)nc5c4)ccc3[nH]2)cc1 [Compound 97]
8,> 200,"O=C(O)c1ccc2nc(-c3ccc(-c4nc5ccc(C(=O)O)cc5[nH]4)cc3)[nH]c2c1 [Compound 11, 2,2′-(1,4-phenylene)bis(1H-benzo[d]imidazole-6-carboxylic acid)]"
9,22.1,"CN(C)CCNC(=O)c1ccc2nc(-c3ccc(-c4nc5ccc(C(=O)NCCNC(=O)OC(C)(C)C)cc5[nH]4)cc3)[nH]c2c1 [Compound 49, tert-butyl (2-(2-(4-(6-((2-(dimethylamino)ethyl)carbamoyl)-1H-benzo[d]imidazol-2-yl)phenyl)-1H-benzo[d]imidazole-6-carboxamido)ethyl)carbamate]"
10,35,"CCOC(CNC(=N)Nc1ccc2nc(-c3ccc(-c4nc5ccc(NC(=N)NCC(OCC)OCC)cc5[nH]4)cc3)[nH]c2c1)OCC [Compound 18, 1,1′-(2,2′-(1,4-phenylene)bis(1H-benzo[d]imidazole-5,2-diyl))bis(3-(2,2-diethoxyethyl)guanidine)]"

# Same assay, conditions: Table M; 80 nM RNA, 60 nM MBNL1-His6
row,IC50 [µM],SMILES
1,110,C[C@@H](NC(=O)CNCCCn1cc(CCCCN(C)CCNC(=O)CCCOc2ccc3[nH]c(-c4ccc(-c5nc6cc(OCCCN(C)C)ccc6[nH]5)cc4)nc3c2)nn1)C(=O)N[C@H](C)C(=O)N[C@H](C)C(=O)N[C@H](C)C(=O)N(CCCn1cc(CCCCN(C)CCNC(=O)CCCOc2ccc3[nH]c(-c4ccc(-c5nc6cc(OCCCN(C)C)ccc6[nH]5)cc4)nc3c2)nn1)CC(N)=O [Compound 407]
2,95.3,"CN(C)CCCOc1ccc2nc(-c3ccc(-c4nc5ccc(OCCCO)cc5[nH]4)cc3)[nH]c2c1 [Compound 222, 3-((2-(4-(5-(3-(dimethylamino)propoxy)-1H-benzo[d]imidazol-2-yl)phenyl)-1H-benzo[d]imidazol-5-yl)oxy)propan-1-ol]"
3,74.1,OCCOc1cc(-c2nc3ccc(O)cc3[nH]2)ccc1-c1nc2ccc(O)cc2[nH]1 [Compound 261]
4,> 200,CN(C)CC(CN(C)C)Oc1ccc(-c2nc3cc(-c4ccc5[nH]c(-c6ccc(OC(CN(C)C)CN(C)C)cc6)nc5c4)ccc3[nH]2)cc1 [Compound 369]
5,100,c1cc2nc(-c3ccc(-c4nc5ccc(OCCN6CCCCC6)cc5[nH]4)cc3)[nH]c2cc1OCCN1CCCCC1 [Compound 191]
6,41.6,CN(C)CCCSc1ccc(-c2nc3cc(-c4ccc5[nH]c(-c6ccc(SCCCN(C)C)cc6)nc5c4)ccc3[nH]2)cc1 [Compound 383]
7,19.4,CN(C)CCCCCCOc1ccc2nc(-c3ccc(-c4nc5ccc(O)cc5[nH]4)cc3)[nH]c2c1 [Compound 209]
8,> 200,COCCn1c(-c2ccc(-c3nc4cc(OCCCN(C)C)ccc4[nH]3)cc2)nc2cc(OCCCN(C)C)ccc21 [Compound 329]
9,64.4,CC(=O)NCCN1CCN(CCNC(=O)c2ccc3nc(-c4ccc(-c5nc6ccc(C(=O)NCCN7CCCCC7)cc6[nH]5)cc4)[nH]c3c2)CC1 [Compound 206]
10,29,CN(C)CCCCOc1ccc(-c2nc3cc(-c4ccc5[nH]c(-c6ccc(OCCCCN(C)C)cc6)nc5c4)ccc3[nH]2)cc1 [Compound 362]
11,23.5,"CN(C)C/C=C\COc1ccc2nc(-c3ccc(-c4nc5ccc(OC/C=C\CN(C)C)cc5[nH]4)cc3)[nH]c2c1 [Compound 244, (2Z,2′Z)-4,4′-((2,2′-(1,4-phenylene)bis(1H-benzo[d]imidazole-6,2-diyl))bis(oxy))bis(N,N-dimethylbut-2-en-1-amine)]"
12,10.9,CN(C)CCNC(=O)c1ccc(-c2nc3ccc(-c4ccc5nc(-c6ccc(C(=O)N7CCC(C8CCN(C(=O)c9ccc(-c%10nc%11ccc(-c%12ccc%13nc(-c%14ccc(C(=O)NCCN(C)C)cc%14)[nH]c%13c%12)cc%11[nH]%10)cc9)CC8)CC7)cc6)[nH]c5c4)cc3[nH]2)cc1 [Compound 439]
13,104,Oc1ccc2nc(-c3ccc(-c4nc5ccc(OCCN6CCCCC6)cc5[nH]4)cc3)[nH]c2c1 [Compound 195]
14,33.6,"CN(C)CCCCOc1ccc2nc(-c3ccc(-c4nc5ccc(OCCCCN(C)C)cc5[nH]4)cc3)[nH]c2c1 [Compound 197, 4,4′-((1,4-phenylenebis(1H-benzo[d]imidazole-2,6-diyl))bis(oxy))bis(N,N-dimethylbutan-1-amine)]"
15,50.6,CN(C)CCNC(=O)c1ccc(-c2nc3cc(-c4ccc5[nH]c(-c6ccc(C(=O)N(C)CCCN(C)C(=O)c7ccc(-c8nc9cc(-c%10ccc%11[nH]c(-c%12ccc(C(=O)NCCN(C)C)cc%12)nc%11c%10)ccc9[nH]8)cc7)cc6)nc5c4)ccc3[nH]2)cc1 [Compound 409]
16,8,"C[C@@H](NC(=O)CN(CCN)C(=O)c1ccc(-c2nc3cc(-c4ccc5[nH]c(-c6ccc(C(=O)NCCN(C)C)cc6)nc5c4)ccc3[nH]2)cc1)C(=O)N[C@H](C)C(=O)N[C@H](C)C(=O)N[C@H](C)C(=O)N(CCNC(=O)c1ccc(-c2nc3cc(-c4ccc5[nH]c(-c6ccc(C(=O)NCCN(C)C)cc6)nc5c4)ccc3[nH]2)cc1)CC(N)=O (single isomer, unassigned) [Compound 443]"
17,> 200,CCN(CC)C(=O)COc1ccc(-c2nc3cc(-c4ccc5[nH]c(-c6ccc(OCC(=O)N(CC)CC)cc6)nc5c4)ccc3[nH]2)cc1 [Compound 349]

row,SMILES,IC50 [µM]
1,"CN(C)CCCCOc1ccc2nc(-c3ccc(-c4nc5ccc(O)cc5[nH]4)cc3)[nH]c2c1 [Compound 200, 2-(4-(6-(4-(dimethylamino)butoxy)-1H-benzo[d]imidazol-2-yl)phenyl)-1H-benzo[d]imidazol-6-ol]",32.1
2,CN1C2CCC1CC(NC(=O)c1ccc(-c3nc4cc(-c5ccc6[nH]c(-c7ccc(C(=O)NC8CC9CCC(C8)N9C)cc7)nc6c5)ccc4[nH]3)cc1)C2 (stereo not drawn) [Compound 341],5.32
3,"CN(C)CCCOc1ccc2nc(-c3ccc(-c4nc5ccc(OCCCC(F)(F)F)cc5[nH]4)cc3)[nH]c2c1 [Compound 240, N,N-dimethyl-3-((2-(4-(6-(4,4,4-trifluorobutoxy)-1H-benzo[d]imidazol-2-yl)phenyl)-1H-benzo[d]imidazol-6-yl)oxy)propan-1-amine]",71.5

# Reference: patent publication US10961202B2, “Bis-benzimidazole compounds and methods of using the same” (THE SCRIPPS RESEARCH INSTITUTE, priority 2017, dated 2021)
